According to PMC6954543, “A window-of-opportunity trial of the CXCR1/2 inhibitor reparixin in operable HER-2-negative breast cancer” (Breast Cancer Research : BCR, 2020):

How the values were obtained:
[1] = system: ALDH+ and CD24−/CD44+ CSC; experiment: CSC evaluation in core biopsy samples by flow cytometry; format: in vivo, human
Description: Patients underwent core biopsies at baseline (day − 14 to 0) and at the completion of therapy (day 21). Three to five ≥ 18-gage needle biopsies were taken to measure the changes in CSC populations and pathway markers. If not performed at the completion of treatment, a core biopsy was taken on the day of surgery by the same technique. A sample of the surgically resected tumor tissue was also taken.
CSC populations (CD24^−/CD44^+ and ALDH^+) were measured by flow-cytometry of single-cell suspensions obtained from tumor biopsies (Additional file 1: Supplemental Materials) by using anti-human CD44-APC (clone G44-26) and CD24-FITC (clone ML5, RUO) antibodies (BD Biosciences, Franklin Lakes, NJ), and ALDEFLUOR assay (StemCell Technologies, Inc., Vancouver, BC, Canada), respectively, as previously published.
In the absence of reference data from the literature, signal of activity was defined as a ≥ 20% reduction in CSC (defined by either the ALDH^+− or CD24^−/CD44^+ phenotype) from baseline values as measured by flow cytometry, accompanied by a consistent reduction of the same cell population by IHC. The 20% cutoff was chosen considering only 1 21-day course of reparixin could be administered before surgery. Given the exploratory nature of the study to be conducted in a curable patient population, a sample of 40 patients divided into 2 subgroups of 20 patient each (i.e., ER+ and/or PgR+ and TNBC) was deemed adequate based upon simulations using the Wilson score method to obtain a lower limit for the probability of success. For each subgroup with this sample size, the study will have 80% power to detect a signal of activity (as defined above) observed in ≥ 70% patients as statistically significant at the 0.05 significance level.
To obtain single cell suspension, samples were weighed and observed for appearance, then placed in digestion media and kept at room temperature. The specimens were then rocked for 1 hour at 185 rpm (1.5 hours for surgical specimens), then filtered through 70 µm filter. HBSS+ was added to rinse any residual cells from filter, and the specimens were centrifuged 350xg for 5 minutes at 4 °C. For RBC lysis, cells were resuspended in sterile cell culture grade water, and after 20 seconds, 10XPBS was added. The specimens were then centrifuged at 350xg for 5 minutes at 4 °C. Supernatant was removed. The rest of the specimen was then filtered with 40 µm sterile cell strainer. Cell concentration was measured using Invitrogen Countess.

[2] = system: P62; experiment: p62 expression on tumor cells by IHC; format: in vivo, human; conditions: IHC score 0 to 4
Description: All IHC analyses and scoring for extent (0 to 4) and intensity (0 to 3) were performed at the Houston Memorial Hermann Pathology laboratory as previously described. After antigen retrieval (Tris-Cl, pH 9.0), paraffin-embedded sections of sample tumors were incubated for 1 h at room temperature with the following antibodies: anti-human CXCR1 (rabbit polyclonal to CXCR1 - C-terminal, ab137351; Abcam, Cambridge, MA), anti-human CD31 (clone JC70A, #IS610; Dako, Glostrup, Denmark), anti-human p62 (clone SQSTM1/p62, # 5114; Cell Signaling), anti-human AKT (rabbit polyclonal to pan-AKT, # ab8805; Abcam), anti-human FAK (clone pY861, #44-626G; Invitrogen, Qiagen, Carlsbad, CA), anti-human phospho-AKT (clone Ser473 (D9E), #4060; Cell Signaling), anti-human phospho-FAK (clone Y397, #ab4803; Abcam), and anti-human LC3B (clone D11, #3868; Cell Signaling). For the evaluation of extent, the following semi-quantitative score method (0 to 4) was used: 0, no positive cells; 1, 1–25%; 2, 26–50%; 3, 51–75%; and 4, 76–100%.

CC(C)Cc1ccc([C@@H](C)C(=O)NS(C)(=O)=O)cc1 [reparixin]
patients with decrease in ALDH+ cells not accompanied by reduction of CD24−/CD44+ cells [1]: 2 patients | patients with decrease in CD24−/CD44+ CSC not paralleled by decrease in ALDH+ CSC [1]: 6 patients | patients without ALDH+ CSC at baseline in whom ALDH+ CSCs were detected at day 21 ([1]; core biopsy): 5/9 | patients without CD24−/CD44+ CSC at baseline in whom CD24−/CD44+ CSCs were detected at day 21 ([1]; core biopsy): 6/6 | P62 extent (percentage of positive cells), change baseline to day 21 [2]: decreased from level 4 to level 3 or lower in the majority of patients
